Values joined by “and” are separate entries in the source; they are usually repeats but may differ in a detail not shown here. Equal values may be shown once. Marks after values point to notes of the source that are not given here.
Key:
[1] = system: explants of adipose tissues; assay: Slimming effect: glycerol released in culture medium of adipose tissue explants; type: cell-based, human
Experimental: The activity of the compounds of the invention on the adipocytes has been assessed. To do so, tests have been carried out on explants of adipose tissues that are kept alive according to the following experimental protocol. The products to be tested are introduced in the culture medium. After 9 days of treatment, the activity is assessed through an assay of the glycerol released in the culture medium. In order to be able to compare the potential activity of the molecules, caffeine (Sigma ref C-0750 batch 127F0396), which is known for its activity on the adipocytes (Studlar M. […] The explants are prepared from a tummy tuck ([…]-AB-40) carried out on a donor. 54 explants of tissues have been prepared and kept alive in a medium which is supplemented with penicillin/streptomycin antibiotics (Gibco ref 15140 batch 918578) at 37° C. and with 5% of CO2. The treatment has been carried out, on 3 explants, by incorporating 100 μl of the product (which is in turn at a 2% concentration in the adequate solvent, DMSO) in 2 ml of the culture medium on days J0, J2, J3, J5 and J7. Caffeine has been diluted to the desired concentration in the culture medium on these same days. The control explants have undergone no treatment. On J0, the 3 explants have been collected and frozen at -80° C. On J9, the remaining explants have been collected and preserved under the same conditions. The extraction of lipids from the culture medium has been carried out according to a tested procedure. The assay of the glycerol of the culture medium has been carried out using a glycerol assay kit (Megazyme, K-GROL) in the form of 96-well microplates and reading has been made at 340 nm with a Tecam Infinite M200 microplate reader associated to the Magellan software.

[2] = system: normal human dermal fibroblasts; assay: Production of progerin in monolayer cultures of normal human dermal fibroblasts (ELISA); type: cell-based; conditions: for Progerin % DMSO / Progerin Average / Progerin, individual values / Progerin Difference (%): 96 hours; for Progerin Difference (%): vs DMSO
Text: In order to study the influence of the compounds of the invention on the concentration of progerin in the cells, the assay method described by C. Verdy, J.-E. Branka and N. Mekideche in <<Quantitative assessment of lactate and progerine production in normal human cutaneous cells during normal ageing: effect of an alaria esculenta extract>>, Int. J. Cosmetic Science, 2011, 1-5, has been used.
The test system consists of monolayers of adult normal human dermal fibroblasts obtained by cultivating cells collected from a tummy tuck carried out on a person.
Insulin at 10 nM has been used as a reference product in this study. […]
The compound to be tested is solubilized in 1 mg/ml in DMSO, then diluted in the cells incubation medium, with a constant concentration of 0.1% (v/v) in DMSO.
Upon completion of the incubation period, on the one hand, the progerin has been quantified in the cellular lysates (obtained by ultrasonic action) through a sensitive and specific ELISA assay, and on the other hand, the proteins that are contained in the cellular lysates have been quantified by a spectrophotometric method (Bradford method—Bradford M. (1976) Anal. Biochem., 72, 248-254).
The statistical significance of the differences that have been observed between the <<Control>> and the <<reference product>> conditions, has been assessed through a Student test. The statistical significance of the differences that have been observed between the <<Check>> and the <<test products>> conditions, has been assessed through a one-way analysis of variance (One Way ANOVA) followed by a Holm-Sidak test (*:p<0.05).

Cn1c(=O)c2c(ncn2C)n(C)c1=O [Caffeine, caffeine, reference compound]
Glycerol % in comparison with caffeine ([1]; after 9 days of treatment): 100% | Glycerol Average ([1]; glycerol released in culture medium after 9 days, 100 μl of 2% product in DMSO in 2 ml medium on J0, J2, J3, J5, J7, 3 explants): 0.096 mg/mL

COc1cc(/C=C/C(=O)OCCc2ccc(OC(C)=O)cc2)cc(OC)c1OC(C)=O [Compound 1, 4-acetoxy-3,5-dimethoxy cinnamate of 2-(4-acetoxyphenyl)-ethyl]
melting point: 132 °C

COc1cc(/C=C/C(=O)Oc2ccc(CCO)cc2)cc(OC)c1OC(C)=O [Compound 2]
Progerin % DMSO ([2]; 10 ng/ml): 25.8% | Progerin Average ([2]; 10 ng/ml): 286.9* ng/mg of protein | Progerin, individual values ([2]; 10 ng/ml): 233.7 ng/mg of protein and 353.5 ng/mg of protein and 273.6 ng/mg of protein | Progerin Difference (%) ([2]; 10 ng/ml): −74.2% | Progerin % DMSO ([2]; 100 ng/ml): 23.1% | Progerin Average ([2]; 100 ng/ml): 256.4* ng/mg of protein | Progerin, individual values ([2]; 100 ng/ml): 170.6 ng/mg of protein and 196.3 ng/mg of protein and 402.4 ng/mg of protein | Progerin Difference (%) ([2]; 100 ng/ml): −76.9% | Progerin % DMSO ([2]; 500 ng/ml): 26.4% | Progerin Average ([2]; 500 ng/ml): 293* ng/mg of protein | Progerin, individual values ([2]; 500 ng/ml): 300.1 ng/mg of protein and 328.4 ng/mg of protein and 250.5 ng/mg of protein | Progerin Difference (%) ([2]; 500 ng/ml): −73.6% | neo synthesis of progerin ([2]; under the retained experimental conditions): significantly decrease
